Source: ChEMBL document CHEMBL1201862, “PubChem BioAssay data set” (2004)
Calls of active or inactive are those of the source.

Tests used:
[1] = target: T1, Replicative DNA helicase DnaB (Mycobacterium tuberculosis, UniProt P9WMR3); experiment: DnaB intein splicing inhibitors, dose response, biochemical, cell-free fluorescence (AID 449749); assay type: functional
T1 sequence (P9WMR3 whole entry): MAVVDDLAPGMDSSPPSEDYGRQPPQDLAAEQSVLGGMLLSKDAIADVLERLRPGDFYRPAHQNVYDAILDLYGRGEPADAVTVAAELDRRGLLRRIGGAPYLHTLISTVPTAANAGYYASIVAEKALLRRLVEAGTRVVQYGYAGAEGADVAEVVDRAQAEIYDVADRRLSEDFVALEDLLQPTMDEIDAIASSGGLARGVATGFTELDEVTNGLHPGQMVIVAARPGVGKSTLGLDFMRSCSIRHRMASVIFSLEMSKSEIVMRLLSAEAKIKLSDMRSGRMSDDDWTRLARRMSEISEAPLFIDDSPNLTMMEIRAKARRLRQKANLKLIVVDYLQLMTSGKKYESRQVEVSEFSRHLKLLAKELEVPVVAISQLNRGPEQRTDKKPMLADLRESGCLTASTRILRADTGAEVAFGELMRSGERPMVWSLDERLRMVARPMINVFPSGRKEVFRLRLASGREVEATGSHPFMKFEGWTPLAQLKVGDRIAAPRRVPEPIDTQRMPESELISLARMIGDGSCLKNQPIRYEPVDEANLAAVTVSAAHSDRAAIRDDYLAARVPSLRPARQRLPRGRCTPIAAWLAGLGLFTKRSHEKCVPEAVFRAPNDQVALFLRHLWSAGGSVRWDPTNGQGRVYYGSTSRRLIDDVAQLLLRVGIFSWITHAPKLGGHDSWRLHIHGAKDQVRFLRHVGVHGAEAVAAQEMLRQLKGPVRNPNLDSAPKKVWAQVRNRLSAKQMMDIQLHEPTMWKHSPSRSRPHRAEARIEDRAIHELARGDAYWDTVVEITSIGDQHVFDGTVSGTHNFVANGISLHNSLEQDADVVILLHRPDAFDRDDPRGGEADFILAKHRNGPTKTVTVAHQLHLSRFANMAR

[2] = target: T2, Apoptotic protease-activating factor 1 (Homo sapiens, UniProt O14727); assay type: functional
T2 sequence (O14727 whole entry): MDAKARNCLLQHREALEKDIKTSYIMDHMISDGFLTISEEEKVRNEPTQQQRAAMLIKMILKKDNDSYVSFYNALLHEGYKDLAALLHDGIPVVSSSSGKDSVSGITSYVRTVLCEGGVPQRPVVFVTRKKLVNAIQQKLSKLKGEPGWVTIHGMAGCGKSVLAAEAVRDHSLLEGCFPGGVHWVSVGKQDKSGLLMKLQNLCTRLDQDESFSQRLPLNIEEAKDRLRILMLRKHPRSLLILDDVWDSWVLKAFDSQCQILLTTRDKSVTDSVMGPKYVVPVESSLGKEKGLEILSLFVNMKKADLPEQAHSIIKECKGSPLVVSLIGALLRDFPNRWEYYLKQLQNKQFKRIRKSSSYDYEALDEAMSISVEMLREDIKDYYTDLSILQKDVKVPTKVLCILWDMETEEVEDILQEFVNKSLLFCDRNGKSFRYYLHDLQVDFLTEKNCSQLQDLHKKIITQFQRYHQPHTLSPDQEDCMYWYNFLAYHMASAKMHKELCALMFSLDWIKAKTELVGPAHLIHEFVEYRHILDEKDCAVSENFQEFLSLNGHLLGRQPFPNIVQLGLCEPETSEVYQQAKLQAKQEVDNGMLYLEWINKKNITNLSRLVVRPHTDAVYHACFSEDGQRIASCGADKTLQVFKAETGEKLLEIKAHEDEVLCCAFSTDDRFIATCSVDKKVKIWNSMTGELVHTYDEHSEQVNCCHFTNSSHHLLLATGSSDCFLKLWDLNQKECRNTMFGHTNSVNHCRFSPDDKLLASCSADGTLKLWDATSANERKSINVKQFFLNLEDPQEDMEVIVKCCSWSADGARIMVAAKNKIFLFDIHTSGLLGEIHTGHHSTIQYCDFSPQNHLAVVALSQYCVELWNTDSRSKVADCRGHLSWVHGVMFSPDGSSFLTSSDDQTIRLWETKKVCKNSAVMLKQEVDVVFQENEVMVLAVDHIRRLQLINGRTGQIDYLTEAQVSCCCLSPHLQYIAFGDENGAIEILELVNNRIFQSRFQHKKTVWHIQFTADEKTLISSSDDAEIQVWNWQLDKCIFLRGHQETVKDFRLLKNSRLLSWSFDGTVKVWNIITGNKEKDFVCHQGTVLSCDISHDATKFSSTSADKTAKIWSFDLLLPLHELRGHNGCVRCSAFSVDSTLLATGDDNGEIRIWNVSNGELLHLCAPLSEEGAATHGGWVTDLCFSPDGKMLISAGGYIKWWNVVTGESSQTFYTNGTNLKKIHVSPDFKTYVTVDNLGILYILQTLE

[3] = target: T3, Protein RecA (Mycobacterium tuberculosis, UniProt P9WHJ3); experiment: Fluorescence Cell-Free Homogeneous Dose Retest to Identify Inhibitors of RecA-Intein Splicing Activity. [Related pubchem assays (depositor defined):AID2097, AID2223, AID489010, AID492950]; assay type: functional
T3 sequence (P9WHJ3 whole entry): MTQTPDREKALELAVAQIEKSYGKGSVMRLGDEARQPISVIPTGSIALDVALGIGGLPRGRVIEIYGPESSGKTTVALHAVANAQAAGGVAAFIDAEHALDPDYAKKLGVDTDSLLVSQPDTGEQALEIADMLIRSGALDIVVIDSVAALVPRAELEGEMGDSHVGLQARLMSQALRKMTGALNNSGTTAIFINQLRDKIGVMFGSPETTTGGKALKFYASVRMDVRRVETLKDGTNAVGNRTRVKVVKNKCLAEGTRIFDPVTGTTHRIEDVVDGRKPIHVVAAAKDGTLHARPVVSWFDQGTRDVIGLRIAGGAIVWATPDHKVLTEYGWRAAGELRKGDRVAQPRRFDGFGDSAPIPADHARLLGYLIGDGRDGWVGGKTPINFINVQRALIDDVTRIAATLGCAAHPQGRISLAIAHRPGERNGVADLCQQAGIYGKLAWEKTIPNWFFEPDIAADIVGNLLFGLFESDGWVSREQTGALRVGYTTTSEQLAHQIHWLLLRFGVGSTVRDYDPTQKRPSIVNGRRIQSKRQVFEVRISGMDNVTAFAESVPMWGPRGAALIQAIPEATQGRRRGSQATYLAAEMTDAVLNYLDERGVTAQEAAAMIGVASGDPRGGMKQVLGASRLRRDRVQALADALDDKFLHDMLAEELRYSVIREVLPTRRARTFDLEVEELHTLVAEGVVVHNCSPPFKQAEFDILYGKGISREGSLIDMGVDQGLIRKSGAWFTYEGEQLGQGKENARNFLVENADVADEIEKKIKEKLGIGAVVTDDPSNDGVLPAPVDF

[4] = HEK293 cell cytotoxicity, dose response, cytotoxicity control, plate reader, cherry-picked samples (AID 743446); assay type: functional, cell-based
[5] = A549 cell cytotoxicity, dose response, cytotoxicity control, plate reader, cherry-pick, antagonist series (AID 743412); assay type: functional, cell-based
[6] = MC4R antagonists, dose response, counter-screen for LGR2 antagonist project, cell-based, plate reader, cherry pick (AID 743444); assay type: functional;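 further: transfected HEK 293 cells stimulated with alpha-MSH peptide; potency of inhibitors of the alpha-MSH evoked signal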

| SMILES | AC50 [1] | IC50 [2] | EC50 [3] | AC50 [4] | AC50 [5] | AC50 [6] |
| --- | --- | --- | --- | --- | --- | --- |
| O=c1[nH]c(N2CCOCC2)cc2ccccc12 | > 120 µM (inactive) | 8.83 µM (active) | > 380 µM (inconclusive) |  |  |  |
| CCC(COC)Oc1cc(NCc2ccccc2)c2ncn(C(C)C)c2c1 (configuration not stated) |  | 16.7 µM (active) |  | 30.4 µM (active) | 26.1 µM (active) | 33.5 µM (active) |
| O=[N+]([O-])c1ccc(Sc2nc3ccccc3o2)c([N+](=O)[O-])c1 | 2.05 µM (active) |  | 1.5 µM (active) | 8.49 µM (active) | 6.63 µM (active) | 28.8 µM (active) |
